Assay results from ChEMBL document CHEMBL1165947, “Synthesis and antitumor activity of 2,5-bis(3'-indolyl)-furans and 3,5-bis(3'-indolyl)-isoxazoles, nortopsentin analogues” (Bioorg Med Chem, 2010).

Test system: P388
Assay: Cytotoxicity against mouse P388 cells
Assay type: functional, cell-based

Structure (SMILES)	IC50 [nM]
Cn1c(-c2cn(C)c3cc(Br)ccc23)cnc1-c1cn(C)c2ccccc12	800
Brc1ccc2c(-c3c[nH]c(-c4c[nH]c5cc(Br)ccc45)n3)c[nH]c2c1 [NORTOPSENTIN A]	4500
Brc1ccc2c(-c3nc(-c4c[nH]c5ccccc45)c[nH]3)c[nH]c2c1 [NORTOPSENTIN B]	4500
Cn1c(-c2cn(C)c3cc(Br)ccc23)cnc1-c1cn(C)c2cc(Br)ccc12 [N-METHYL NORTOPSENTIN A]	800
